Laboratory results taken from patent US20120214784A1, “SPIROPIPERIDINE COMPOUNDS AS ORL-1 RECEPTOR ANTAGONISTS” (ELI LILLY AND COMPANY, priority 2009, published 2012).

How the values were obtained:
[1] = molecular target: human ERG (hERG) K+ channel (Homo sapiens, UniProt Q12809); assay: hERG channel [3H]astemizole binding assay; details: HEK293 cells expressing cloned hERG, [3H]astemizole 2 nM; read-out: Ki for hERG K+ channel
Method: Blockade of K^+-channel conductance in the heart is associated with cardiotoxicity in the form of QT-wave prolongation. The affinity (Ki) of the exemplified nociceptin receptor antagonists for the human ERG (hERG) K^+ channel is determined in HEK293 cells expressing cloned hERG using the hERG channel antagonist radioligand [3H]astemizole (2 nM final assay concentration) according to well known procedures (see for example Finlayson K, et al. (Eur J Pharmacol. 412(3):203-12, 2001) [3H]Astemizole binding assays are performed at the contract research company Cerep (Paris France) according to standard procedures.

[2] = tested on: wild type and ORL knockout mice; assay: Blockade of fasting-induced hyperphagia in mice; assay type: in vivo, mouse; details: wild type mice, oral gavage 30 min. prior to food, food intake 1 hr
[3] = molecular target: Kappa Opioid (Homo sapiens, UniProt P41145); assay: Radioligand binding selectivity
Kappa Opioid, sequence (P41145 whole entry): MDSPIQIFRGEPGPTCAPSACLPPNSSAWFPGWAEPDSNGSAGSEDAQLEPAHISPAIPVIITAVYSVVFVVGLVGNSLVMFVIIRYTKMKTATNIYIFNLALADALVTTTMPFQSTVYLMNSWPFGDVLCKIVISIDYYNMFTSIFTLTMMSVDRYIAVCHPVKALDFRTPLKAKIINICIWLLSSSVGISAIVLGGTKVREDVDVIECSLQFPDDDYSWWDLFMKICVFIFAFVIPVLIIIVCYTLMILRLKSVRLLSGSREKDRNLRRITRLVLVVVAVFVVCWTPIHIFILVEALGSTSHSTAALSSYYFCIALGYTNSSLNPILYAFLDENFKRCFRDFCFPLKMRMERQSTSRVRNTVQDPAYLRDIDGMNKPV

[4] = molecular target: Mu Opioid (Homo sapiens, UniProt P35372); assay: Radioligand binding selectivity
[5] = molecular target: 5-HT2C (Homo sapiens, UniProt P28335); assay: Radioligand binding selectivity
5-HT2C, sequence (P28335 33-458, species assumed): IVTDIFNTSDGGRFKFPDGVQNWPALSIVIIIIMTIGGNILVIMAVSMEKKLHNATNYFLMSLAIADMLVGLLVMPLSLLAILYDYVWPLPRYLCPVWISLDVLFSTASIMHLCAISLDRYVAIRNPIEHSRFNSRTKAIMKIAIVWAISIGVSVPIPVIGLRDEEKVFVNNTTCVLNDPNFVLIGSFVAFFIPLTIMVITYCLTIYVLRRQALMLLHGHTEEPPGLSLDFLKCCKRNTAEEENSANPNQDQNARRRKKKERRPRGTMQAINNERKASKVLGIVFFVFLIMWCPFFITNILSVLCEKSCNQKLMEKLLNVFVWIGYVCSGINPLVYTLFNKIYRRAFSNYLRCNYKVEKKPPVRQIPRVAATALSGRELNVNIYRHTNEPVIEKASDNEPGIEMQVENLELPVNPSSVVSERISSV

[6] = molecular target: 5-HT1B (Homo sapiens, UniProt P28222); assay: Radioligand binding selectivity
5-HT1B, sequence (P28222 whole entry, species assumed): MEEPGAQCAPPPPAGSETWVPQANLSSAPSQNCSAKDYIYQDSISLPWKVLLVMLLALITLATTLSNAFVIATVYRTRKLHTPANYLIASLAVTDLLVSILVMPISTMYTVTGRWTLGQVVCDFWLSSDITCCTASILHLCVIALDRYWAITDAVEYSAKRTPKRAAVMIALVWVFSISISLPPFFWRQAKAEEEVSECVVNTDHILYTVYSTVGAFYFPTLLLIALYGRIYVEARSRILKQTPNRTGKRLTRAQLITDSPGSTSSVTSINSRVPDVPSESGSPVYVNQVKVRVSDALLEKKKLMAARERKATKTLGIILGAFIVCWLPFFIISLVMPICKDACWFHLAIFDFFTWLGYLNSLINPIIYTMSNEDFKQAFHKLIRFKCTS

[7] = molecular target: 5-HT1E (Homo sapiens, UniProt P28566); assay: Radioligand binding selectivity
5-HT1E, sequence (P28566 whole entry, species assumed): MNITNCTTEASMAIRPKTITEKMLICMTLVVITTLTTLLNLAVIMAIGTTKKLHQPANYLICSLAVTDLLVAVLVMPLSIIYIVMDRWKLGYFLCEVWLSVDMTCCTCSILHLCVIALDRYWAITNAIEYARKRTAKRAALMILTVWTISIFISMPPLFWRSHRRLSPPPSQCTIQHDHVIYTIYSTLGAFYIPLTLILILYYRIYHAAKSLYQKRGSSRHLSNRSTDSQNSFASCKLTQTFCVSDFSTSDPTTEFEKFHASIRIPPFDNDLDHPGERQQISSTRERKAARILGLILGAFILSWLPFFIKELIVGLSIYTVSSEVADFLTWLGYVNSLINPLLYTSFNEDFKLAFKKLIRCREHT

[8] = molecular target: 5-HT2A (Homo sapiens, UniProt P28223); assay: Radioligand binding selectivity
5-HT2A, sequence (P28223 whole entry, species assumed): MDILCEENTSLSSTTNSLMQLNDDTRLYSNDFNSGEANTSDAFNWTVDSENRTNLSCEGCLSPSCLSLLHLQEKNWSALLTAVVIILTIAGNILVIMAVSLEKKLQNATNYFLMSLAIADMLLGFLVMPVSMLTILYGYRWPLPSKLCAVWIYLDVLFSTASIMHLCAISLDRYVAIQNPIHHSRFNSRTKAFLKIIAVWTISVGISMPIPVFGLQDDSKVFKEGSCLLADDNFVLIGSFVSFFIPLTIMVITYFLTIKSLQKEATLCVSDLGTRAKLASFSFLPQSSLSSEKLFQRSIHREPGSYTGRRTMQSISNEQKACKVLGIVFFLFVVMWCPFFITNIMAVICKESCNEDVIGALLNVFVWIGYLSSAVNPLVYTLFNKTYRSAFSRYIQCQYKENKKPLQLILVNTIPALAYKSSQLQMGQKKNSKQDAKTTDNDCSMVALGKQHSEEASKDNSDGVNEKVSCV

[9] = molecular target: 5-HT6 (Homo sapiens, UniProt P50406); assay: Radioligand binding selectivity
5-HT6, sequence (P50406 whole entry, species assumed): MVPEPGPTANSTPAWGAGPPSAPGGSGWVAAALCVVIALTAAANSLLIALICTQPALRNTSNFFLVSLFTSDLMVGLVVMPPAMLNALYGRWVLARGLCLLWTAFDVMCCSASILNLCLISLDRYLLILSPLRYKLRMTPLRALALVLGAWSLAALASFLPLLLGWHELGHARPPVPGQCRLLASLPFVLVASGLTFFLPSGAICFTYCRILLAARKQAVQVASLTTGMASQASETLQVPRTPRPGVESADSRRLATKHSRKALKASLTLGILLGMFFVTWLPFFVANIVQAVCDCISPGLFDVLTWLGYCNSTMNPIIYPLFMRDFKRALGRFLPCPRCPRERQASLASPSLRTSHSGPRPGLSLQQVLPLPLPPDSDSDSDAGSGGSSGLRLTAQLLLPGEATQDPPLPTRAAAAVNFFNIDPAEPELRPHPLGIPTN

[10] = molecular target: Muscarinic M2 (Homo sapiens, UniProt P08172); assay: Radioligand binding selectivity
Muscarinic M2, sequence (P08172 whole entry): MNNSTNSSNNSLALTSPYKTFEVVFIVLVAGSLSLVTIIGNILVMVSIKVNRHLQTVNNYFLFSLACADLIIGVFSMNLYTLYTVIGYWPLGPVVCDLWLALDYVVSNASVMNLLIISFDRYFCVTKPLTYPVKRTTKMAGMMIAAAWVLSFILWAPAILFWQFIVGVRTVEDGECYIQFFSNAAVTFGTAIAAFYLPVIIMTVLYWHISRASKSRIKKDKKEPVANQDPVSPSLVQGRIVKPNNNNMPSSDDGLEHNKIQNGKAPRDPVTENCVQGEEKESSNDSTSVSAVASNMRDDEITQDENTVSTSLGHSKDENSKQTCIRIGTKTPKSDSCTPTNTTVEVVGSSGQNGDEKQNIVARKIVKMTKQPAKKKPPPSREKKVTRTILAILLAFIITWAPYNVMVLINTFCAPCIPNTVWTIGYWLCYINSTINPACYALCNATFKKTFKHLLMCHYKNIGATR

[11] = molecular target: Muscarinic M5 (Homo sapiens, UniProt P08912); assay: Radioligand binding selectivity
Muscarinic M5, sequence (P08912 whole entry): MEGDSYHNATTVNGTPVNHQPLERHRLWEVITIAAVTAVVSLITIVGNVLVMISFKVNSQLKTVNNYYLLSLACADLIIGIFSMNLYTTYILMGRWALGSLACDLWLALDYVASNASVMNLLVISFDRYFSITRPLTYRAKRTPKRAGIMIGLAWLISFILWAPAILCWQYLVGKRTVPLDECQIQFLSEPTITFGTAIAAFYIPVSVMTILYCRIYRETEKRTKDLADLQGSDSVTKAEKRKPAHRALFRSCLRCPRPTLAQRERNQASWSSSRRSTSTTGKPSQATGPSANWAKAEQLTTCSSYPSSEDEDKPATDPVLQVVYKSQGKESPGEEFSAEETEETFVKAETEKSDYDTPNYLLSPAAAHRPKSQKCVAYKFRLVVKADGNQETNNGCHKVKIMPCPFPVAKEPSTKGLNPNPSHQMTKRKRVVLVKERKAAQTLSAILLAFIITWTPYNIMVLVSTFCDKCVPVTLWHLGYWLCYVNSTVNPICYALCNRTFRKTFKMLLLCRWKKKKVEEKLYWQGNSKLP

[12] = molecular target: Muscarinic M1 (Homo sapiens, UniProt P11229); assay: Radioligand binding selectivity
[13] = molecular target: 5-HT7 (Homo sapiens, UniProt P34969); assay: Radioligand binding selectivity
[14] = molecular target: 5-HT4 (Homo sapiens, UniProt Q13639); assay: Radioligand binding selectivity
[15] = molecular target: 5-HT1A (Homo sapiens, UniProt P08908); assay: Radioligand binding selectivity
5-HT1A, sequence (P08908 whole entry, species assumed): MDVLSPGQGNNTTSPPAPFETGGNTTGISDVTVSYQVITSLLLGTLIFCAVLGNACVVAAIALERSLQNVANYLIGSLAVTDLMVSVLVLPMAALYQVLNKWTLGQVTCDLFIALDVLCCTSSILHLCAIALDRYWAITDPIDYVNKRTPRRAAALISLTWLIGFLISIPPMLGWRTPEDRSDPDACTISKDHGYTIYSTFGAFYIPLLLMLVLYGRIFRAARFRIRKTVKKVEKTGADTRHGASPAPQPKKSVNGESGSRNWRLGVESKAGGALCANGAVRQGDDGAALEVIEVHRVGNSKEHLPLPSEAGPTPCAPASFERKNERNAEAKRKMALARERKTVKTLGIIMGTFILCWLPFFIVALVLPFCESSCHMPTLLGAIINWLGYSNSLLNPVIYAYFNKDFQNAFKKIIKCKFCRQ

[16] = molecular target: Muscarinic M3 (Homo sapiens, UniProt P20309); assay: Radioligand binding selectivity
Muscarinic M3, sequence (P20309 whole entry): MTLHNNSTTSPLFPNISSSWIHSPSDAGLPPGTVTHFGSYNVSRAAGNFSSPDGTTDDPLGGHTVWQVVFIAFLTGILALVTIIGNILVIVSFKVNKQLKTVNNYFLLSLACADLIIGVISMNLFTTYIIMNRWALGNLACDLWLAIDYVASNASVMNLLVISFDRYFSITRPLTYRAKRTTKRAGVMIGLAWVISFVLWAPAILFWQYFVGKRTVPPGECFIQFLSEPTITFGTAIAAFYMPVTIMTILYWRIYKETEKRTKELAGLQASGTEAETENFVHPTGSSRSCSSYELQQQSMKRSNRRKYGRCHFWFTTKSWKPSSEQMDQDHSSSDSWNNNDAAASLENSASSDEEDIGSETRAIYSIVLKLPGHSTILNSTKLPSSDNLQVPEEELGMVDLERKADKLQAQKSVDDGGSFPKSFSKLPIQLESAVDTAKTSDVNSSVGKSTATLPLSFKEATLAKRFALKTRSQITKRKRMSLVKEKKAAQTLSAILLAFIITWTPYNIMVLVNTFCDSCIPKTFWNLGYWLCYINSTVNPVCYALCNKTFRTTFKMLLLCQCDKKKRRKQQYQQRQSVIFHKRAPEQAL

[17] = molecular target: Delta Opioid (Homo sapiens, UniProt P41143); assay: Radioligand binding selectivity
Delta Opioid, sequence (P41143 whole entry): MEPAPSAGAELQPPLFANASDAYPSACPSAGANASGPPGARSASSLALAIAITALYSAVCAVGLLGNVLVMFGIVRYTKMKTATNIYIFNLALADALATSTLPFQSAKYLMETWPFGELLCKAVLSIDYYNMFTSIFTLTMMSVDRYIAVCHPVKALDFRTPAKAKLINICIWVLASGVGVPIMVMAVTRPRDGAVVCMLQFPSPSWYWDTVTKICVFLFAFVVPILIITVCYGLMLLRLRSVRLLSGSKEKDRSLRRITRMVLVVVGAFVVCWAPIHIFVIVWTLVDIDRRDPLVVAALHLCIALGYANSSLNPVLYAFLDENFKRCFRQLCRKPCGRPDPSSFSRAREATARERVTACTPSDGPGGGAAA

## Cc1nn(-c2c(F)cccc2F)cc1CN1CCC2(CC1)OCC(F)(F)c1cc(Cl)sc12.O=C(O)C(O)C(O)C(=O)O [Example 2, 2-Chloro-1′-[[1-(2,6-difluorophenyl)-3-methyl-pyrazol-4-yl]methyl]-4,4-difluoro-spiro[5H-thieno[2,3-c]pyran-7,4′-piperidine] (L)-Tartrate]
[1]
  Ki: 2.89 µM
[2]
  fasting-induced hyperphagia: substantially block fasting-induced hyperphagia
[3]
  Ki: > 0.458 µM
[4]
  Ki: > 0.467 µM
[5]
  Ki: > 8.36 µM
[6]
  Ki: > 3.58 µM
[7]
  Ki: > 5.37 µM
[8]
  Ki: > 7.18 µM
[9]
  Ki: > 5.83 µM
[10]
  Ki: > 8 µM
[11]
  Ki: 2.8 µM
[12]
  Ki: 1.38 µM
[13]
  Ki: > 3.98 µM
[14]
  Ki: > 1.97 µM
[15]
  Ki: > 3.18 µM
[16]
  Ki: > 24.2 µM
[17]
  Ki: > 0.481 µM
